Literature values in article PMC10646941 (Chemical Science, 2023).

Target: SARS-CoV-2 3C-Like Protease

## CC(C)(C)[C@H](NC(=O)C(F)(F)F)C(=O)N1C[C@H]2[C@@H]([C@H]1C(=O)N[C@H](C#N)C[C@@H]1CCNC1=O)C2(C)C [nirmatrelvir]
  kinact/Ki: 55000 M⁻¹ s⁻¹
